Assay results reported in patent publication US20220127297A1, “Novel Antibacterial 3"-Derivatives Of 4,6-Disubstituted 2,5-Dideoxystreptamine Aminoglycoside Antibiotics” (AGILeBiotics B.V., priority 2018, published 2022).
Converted amounts (≈) assume the structure as drawn.

Test system: clinical isolates of multidrug-resistant Klebsiella pneumoniae (and ATCC43816)
Assay: MIC determination at Fidelta, clinical isolates
Format: cell-based
Settings: Klebsiella pneumoniae
From the text: 3.4.2 MIC Determination at Fidelta (Croatia)
Tested reference compounds. Amikacin sulfate (Cat. No. 01693, Chem-Impex), Gentamicin sulfate (Cat. No. G4918, Sigma Aldrich), Ceftazidime Pentahydrate (Cat. No. 1098130, USP), Meropenem (Cat. No. 1392454, USP), Tobramycin (Cat. No. 1667508, USP).
Microbial strains. Klebsiella pneumoniae KP-1919 (abdomen), Klebsiella pneumoniae KP-1935 (urine), Klebsiella pneumoniae KP-1936 (abscess), Klebsiella pneumoniae KP-1937 (blood), Klebsiella pneumoniae KP-1942 (urine), Klebsiella pneumoniae KP-1944 (blood), Klebsiella pneumoniae KP-2027 (tracheal aspirate), Klebsiella pneumoniae KP-2029 (urine), Klebsiella pneumoniae KP-2030 (trachea), Klebsiella pneumoniae KP-2031 (skin), Klebsiella pneumoniae KP-2032 (urine), Klebsiella pneumoniae KP-2033 (urine), Klebsiella pneumoniae KP-2034 (urine), Klebsiella pneumoniae KP-2035 (urine), Klebsiella pneumoniae KP-2036 (urine), Klebsiella pneumoniae KP-2037 (urine), Klebsiella pneumoniae ATCC 43816, Pseudomonas aeruginosa PA-1948 (wound), Pseudomonas aeruginosa PA-1949 (urine), Pseudomonas aeruginosa PA-1950 (sputum), Pseudomonas aeruginosa PA-1952 (wound), Pseudomonas aeruginosa PA-1953 (urine), Pseudomonas aeruginosa PA-1954 (sputum), Pseudomonas aeruginosa PA-1967 (blood), Pseudomonas aeruginosa ATCC27853, Acinetobacter baumannii AB-1931 (urine), Acinetobacter baumannii AB-1932 (urine), Acinetobacter baumannii AB-2017 (bronchial aspirate), Acinetobacter baumannii AB-2018 (skin), Acinetobacter baumannii AB-2019 (bronchial aspirate), Acinetobacter baumannii AB-1964 (blood), Acinetobacter baumannii AB-2025 (skin), Acinetobacter baumannii AB-2026 (skin), Acinetobacter baumannii ATCC17978, methicillin-resistant Staphylococcus aureus MRSA-1995 (liquor), methicillin-resistant Staphylococcus aureus MRSA-1998 (wound), methicillin-resistant Staphylococcus aureus MRSA-1999 (skin), methicillin-resistant Staphylococcus aureus MRSA-2003 (wound), vancomycin-resistant Enterococcus faecium VRE-2005 (urine), vancomycin-resistant Enterococcus faecium VRE-2006 (urine), vancomycin-resistant Enterococcus faecium VRE-2007 (urine), vancomycin-resistant Enterococcus faecium VRE-2008 (urine), vancomycin-resistant Enterococcus faecium VRE-2009 (urine), vancomycin-resistant Enterococcus faecium VRE-2010 (urine), vancomycin-resistant Enterococcus faecium VRE-2011 (rectum), vancomycin-resistant Enterococcus faecium VRE-2012 (rectum), vancomycin-resistant Enterococcus faecium VRE-2013 (rectum).
Culture media and equipment. BBL™ Mueller Hinton Broth (REF 275730, Lot. 7009699, Becton Dickinson); Mueller Hinton Agar 2 (Ref. No. 97580-500G-F, Lot. No. BCBV4646, Sigma); Cellstar, 96-well plates, U-bottom (Cat. No. 650180, Lot. No. E14123EB, Greiner Bio-one); 96-well deep well plate, 1 mL (Cat. No. 278606, Nunc); Incubator (Binder); Laminar flow (Thermo Scientific); BioPhotometer (Eppendorf); DEN-1B (McFarland Densitometer, Biosan); McFarland standards (polymer microparticle suspension, Biosan).
Compound preparation. For testing, 5 mg/mL DMSO solutions of the test compounds and reference antibiotics were used. Out of these DMSO solutions, 43.5 μL was transferred to 1656.5 μL of MH media in a deep well plate. Out of these working solutions 100 μL was transferred to wells in the third column of 96-well plates. Plates are previously filled with 50 μL of MH media in all wells except for the wells in the third column. After compound and antibiotic addition, 50 μL was transferred from the third to the fourth column, then from the fourth to the fifth and so on. In this manner, the compounds and antibiotics were plated in 96-well plate in serial two-fold dilutions giving a final concentration range of 64-0.125 μg/mL.
Inoculum preparation. Designations used for clinical isolates were from Fidelta strain collection bank. Microorganisms used were all revived from skim milk storage at −70° C. by plating them on MH agar plates.

For NC[C@H]1O[C@H](O[C@H]2[C@H](O)[C@@H](O[C@H]3O[C@H](CO)[C@@H](O)[C@H](N)[C@H]3O)[C@H](N)C[C@@H]2N)[C@H](N)C[C@@H]1O [Tobramycin, tobramycin], the MIC90 (ATCC43816) was 0.125 µg/mL (≈ 0.267 µM), the MIC90 (ATCC43816, KP-1919, Abdomen/VIM, ESBL) was 32 µg/mL (≈ 68.4 µM) and the MIC90 (ATCC43816, KP-1935, Urine/ESBL, NDM) was 32 µg/mL (≈ 68.4 µM). For the same compound, the MIC90 (ATCC43816, KP-1936, Abscess/NDM) was 16 µg/mL (≈ 34.2 µM), the MIC90 (ATCC43816, KP-1937, Blood/VIM, ESBL) was greater than 64 µg/mL and the MIC90 (ATCC43816, KP-1942, Urine (catheter)/VIM) was 16 µg/mL (≈ 34.2 µM). It also gave an MIC90 (ATCC43816, KP-1944, Blood/NDM) of 32 µg/mL (≈ 68.4 µM), an MIC90 (ATCC43816, KP-2027, Tracheal aspirate/ESBL, OXA-48, ColR) of 16 µg/mL (≈ 34.2 µM) and an MIC90 (ATCC43816, KP-2029, Urine/ESBL, OXA-48) of 32 µg/mL (≈ 68.4 µM). The MIC90 (ATCC43816, KP-2030, Trachea/ESBL, OXA-48) was 64 µg/mL (≈ 137 µM), the MIC90 (ATCC43816, KP-2031, Skin/ESBL, OXA-48) was 32 µg/mL (≈ 68.4 µM) and the MIC90 (ATCC43816, KP-2032, Urine/ESBL, OXA-48) was 16 µg/mL (≈ 34.2 µM). It also gave an MIC90 (ATCC43816, KP-2033, Urine/OXA-A8) greater than 64 µg/mL, an MIC90 (ATCC43816, KP-2034, Urine/ESBL, OXA-48) of 32 µg/mL (≈ 68.4 µM) and an MIC90 (ATCC43816, KP-2035, Urine/ESBL, OXA-48) of 64 µg/mL (≈ 137 µM). For the same compound, the MIC90 (ATCC43816, KP-2036, Urine/ESBL) was 16 µg/mL (≈ 34.2 µM) and the MIC90 (ATCC43816, KP-2037, Urine/ESBL, OXA-48) was 16 µg/mL (≈ 34.2 µM).
